The target in one data set is T1, Androgen receptor (Homo sapiens, UniProt P10275).
T1 sequence (P10275 whole entry): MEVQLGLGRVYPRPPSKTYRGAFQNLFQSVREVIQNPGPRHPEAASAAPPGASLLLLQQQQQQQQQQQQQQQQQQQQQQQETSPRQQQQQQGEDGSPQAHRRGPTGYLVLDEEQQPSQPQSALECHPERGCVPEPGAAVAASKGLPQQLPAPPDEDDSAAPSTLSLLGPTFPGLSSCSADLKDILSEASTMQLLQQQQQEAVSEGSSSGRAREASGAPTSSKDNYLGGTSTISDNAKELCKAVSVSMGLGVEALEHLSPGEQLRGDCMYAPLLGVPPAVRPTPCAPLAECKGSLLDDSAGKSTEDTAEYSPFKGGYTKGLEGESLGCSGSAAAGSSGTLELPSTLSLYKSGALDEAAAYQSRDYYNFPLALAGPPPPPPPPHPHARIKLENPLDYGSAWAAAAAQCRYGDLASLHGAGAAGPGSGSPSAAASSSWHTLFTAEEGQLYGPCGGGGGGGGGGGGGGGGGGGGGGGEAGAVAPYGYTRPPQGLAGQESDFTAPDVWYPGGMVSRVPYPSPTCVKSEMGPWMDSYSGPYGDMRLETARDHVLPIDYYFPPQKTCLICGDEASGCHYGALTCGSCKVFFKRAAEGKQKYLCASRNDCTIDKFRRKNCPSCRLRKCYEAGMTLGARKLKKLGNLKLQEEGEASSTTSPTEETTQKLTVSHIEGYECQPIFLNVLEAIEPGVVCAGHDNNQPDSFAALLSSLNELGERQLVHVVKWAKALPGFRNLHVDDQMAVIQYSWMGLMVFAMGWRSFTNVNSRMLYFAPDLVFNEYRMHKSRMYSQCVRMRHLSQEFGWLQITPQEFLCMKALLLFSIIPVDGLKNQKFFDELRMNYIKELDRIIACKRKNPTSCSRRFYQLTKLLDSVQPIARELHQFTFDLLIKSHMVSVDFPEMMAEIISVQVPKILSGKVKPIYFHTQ
The data set is described as follows: Anti-androgenic activity at androgen receptor (unknown origin) expressed in HEK293 cells by BRET assay. It is filed as cell-based. (In general: BRET reads energy transfer from a luciferase to a nearby fluorophore.)

The target in data set [1] is T2, Histone deacetylase 1 (Homo sapiens, UniProt Q13547). The data set is described as follows: Inhibition of purified human HDAC1 using Ac-Leu-Gly-(e-Ac)Lys-AMC by fluorometric HDAC assay.
Data set [2] has as its system LNCaP. The data set is described as follows: Antiproliferative activity against human LNCAP cells assessed as reduction in cell viability at 100 uM incubated for 5 days. It is filed as functional, cell-based. The following applies: time 5.0 day.
Data set [3] is described as follows: Inhibition of purified human HDAC2 using Ac-Leu-Gly-(e-Ac)Lys-AMC by fluorometric HDAC assay.
The target in data set [4] is T2, Histone deacetylase 1. The data set is described as follows: Inhibition of purified human HDAC1 using Ac-Leu-Gly-(e-Ac)Lys-AMC pre-incubated for 18 hrs by fluorometric HDAC assay.
For data set [5], the system named is LNCaP. Nature of the data set: Antiproliferative activity against human LNCAP cells assessed as reduction in cell viability at 100 uM incubated for 72 hrs. It is filed as functional, cell-based.
Data set [6] in a line: Antiproliferative activity against human BHPrS cells assessed as reduction in cell viability at 1 to 100 uM incubated for 72 hrs. It is filed as toxicity, cell-based. The following applies: dose 1-100 µM.
The next data set deals with BPH-1. Nature of the data set: Antiproliferative activity against human BPH-1 cells assessed as reduction in cell viability at 1 to 100 uM incubated for 72 hrs. It is filed as functional, cell-based. The following applies: dose 1-100 µM.
The test system of data set [7] is LNCaP. The data set is described as follows: Antiproliferative activity against human LNCAP cells assessed as reduction in cell viability at 10 uM incubated for 72 hrs. It is filed as functional, cell-based.
For the next data set, the system named is PC-3. Nature of the data set: Antiproliferative activity against human PC-3 cells assessed as reduction in cell viability at 1 to 100 uM incubated for 72 hrs. The following applies: dose 1-100 µM. It is filed as functional, cell-based.
In data set [8] the target is Class 1 histone deacetylase (Homo sapiens) (UniProt Q13547+O15379+Q92769+Q9BY41). The data set is described as follows: Inhibition of type I nuclear HDACs in human LNCaP cells assessed as induction of histone H3 and H4 acetylation at 10 uM by Western blotting. It is filed as cell-based. For orientation: A western blot detects proteins with antibodies after separation by electrophoresis.

Data set [9] deals with LNCaP. The data set is described as follows: Antiproliferative activity against human LNCAP cells assessed as reduction in cell viability at 10 uM incubated for 5 days. It is filed as functional, cell-based. The following applies: time 5.0 day.

For orientation: IC50 means the point on the concentration scale where inhibition reaches its midpoint.

The source made the active and inactive calls. No cut-off for these calls is given here.

T2 sequence (Q13547 whole entry): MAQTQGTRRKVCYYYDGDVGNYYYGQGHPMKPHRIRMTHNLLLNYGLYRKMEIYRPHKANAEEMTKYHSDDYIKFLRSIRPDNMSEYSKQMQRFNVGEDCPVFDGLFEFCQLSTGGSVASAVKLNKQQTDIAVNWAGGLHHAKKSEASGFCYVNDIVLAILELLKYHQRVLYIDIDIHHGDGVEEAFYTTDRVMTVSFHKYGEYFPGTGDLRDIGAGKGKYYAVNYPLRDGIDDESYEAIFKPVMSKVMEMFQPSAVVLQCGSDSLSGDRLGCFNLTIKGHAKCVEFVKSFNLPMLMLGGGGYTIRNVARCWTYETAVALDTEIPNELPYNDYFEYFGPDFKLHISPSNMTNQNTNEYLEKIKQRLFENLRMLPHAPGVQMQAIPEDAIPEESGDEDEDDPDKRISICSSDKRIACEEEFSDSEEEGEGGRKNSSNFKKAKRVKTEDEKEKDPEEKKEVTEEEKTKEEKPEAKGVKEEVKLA
Sequence of Class 1 histone deacetylase (Homo sapiens) (O15379 whole entry, looked up): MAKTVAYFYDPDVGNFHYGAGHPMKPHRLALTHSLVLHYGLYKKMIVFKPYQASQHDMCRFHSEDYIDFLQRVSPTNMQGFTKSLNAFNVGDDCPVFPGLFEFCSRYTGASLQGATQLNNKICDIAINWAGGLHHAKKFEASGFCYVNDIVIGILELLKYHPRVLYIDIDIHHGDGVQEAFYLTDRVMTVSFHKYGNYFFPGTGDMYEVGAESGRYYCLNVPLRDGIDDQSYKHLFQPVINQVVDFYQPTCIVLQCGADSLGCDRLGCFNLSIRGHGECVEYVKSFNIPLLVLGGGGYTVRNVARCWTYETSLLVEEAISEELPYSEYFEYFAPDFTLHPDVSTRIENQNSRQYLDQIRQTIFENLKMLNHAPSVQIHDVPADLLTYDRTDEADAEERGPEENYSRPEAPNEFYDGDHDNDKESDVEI
Sequence of Class 1 histone deacetylase (Homo sapiens) (Q13547 whole entry, looked up): as the sequence (Q13547 whole entry) above
Sequence of Class 1 histone deacetylase (Homo sapiens) (Q92769 whole entry, looked up): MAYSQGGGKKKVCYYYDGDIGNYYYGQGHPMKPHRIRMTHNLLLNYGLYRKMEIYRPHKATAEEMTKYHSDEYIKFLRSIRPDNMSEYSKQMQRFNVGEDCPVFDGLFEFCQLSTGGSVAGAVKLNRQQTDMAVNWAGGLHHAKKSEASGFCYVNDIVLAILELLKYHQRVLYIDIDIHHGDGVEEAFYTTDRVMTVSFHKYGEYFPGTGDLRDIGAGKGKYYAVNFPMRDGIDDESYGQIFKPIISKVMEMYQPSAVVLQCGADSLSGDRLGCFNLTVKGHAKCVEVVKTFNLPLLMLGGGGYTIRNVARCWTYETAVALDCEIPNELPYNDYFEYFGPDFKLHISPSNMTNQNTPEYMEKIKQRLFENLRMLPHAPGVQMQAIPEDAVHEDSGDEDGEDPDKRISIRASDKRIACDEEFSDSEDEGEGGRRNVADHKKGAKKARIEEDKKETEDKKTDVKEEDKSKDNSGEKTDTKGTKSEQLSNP
Sequence of Class 1 histone deacetylase (Homo sapiens) (Q9BY41 whole entry, looked up): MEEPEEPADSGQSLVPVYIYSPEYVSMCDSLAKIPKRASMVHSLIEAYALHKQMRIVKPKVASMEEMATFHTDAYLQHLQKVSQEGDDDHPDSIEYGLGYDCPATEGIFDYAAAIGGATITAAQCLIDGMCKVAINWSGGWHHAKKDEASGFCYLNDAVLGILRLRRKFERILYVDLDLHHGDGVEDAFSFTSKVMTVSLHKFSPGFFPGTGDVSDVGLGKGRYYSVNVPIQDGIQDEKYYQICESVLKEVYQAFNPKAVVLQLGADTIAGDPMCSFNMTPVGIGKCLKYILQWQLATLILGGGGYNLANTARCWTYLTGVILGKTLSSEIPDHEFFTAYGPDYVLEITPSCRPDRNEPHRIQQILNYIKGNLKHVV

`CC1(C)C(=O)N(c2ccc(C#N)c(C(F)(F)F)c2)C(=S)N1CCCC(=O)NO`: the figures for the half-maximal inhibitory concentration (IC50) at Androgen receptor and on Histone deacetylase 1 [1] were 0.39 µM and 44.9 µM, respectively. In the data set with LNCaP [2], the outcome was Active.
`CC1(C)C(=O)N(c2ccc(C#N)c(C(F)(F)F)c2)C(=S)N1c1ccc(C(=O)Nc2ccccc2N)nc1`: the IC50 was determined as 0.75 µM against Androgen receptor and 5.58 µM at Histone deacetylase 1 [1].
Regarding `CC1(C)C(=O)N(c2ccc(C#N)c(C(F)(F)F)c2)C(=S)N1CCCCC(=O)NO`, the half-maximal inhibitory concentration (IC50) is 1.17 µM against Androgen receptor and 3.09 µM against Histone deacetylase 1 [1]. In addition, the outcome in the data set on LNCaP [2] was Active.
`CC1(C)C(=O)N(c2ccc(C#N)c(C(F)(F)F)c2)C(=S)N1c1ccc(C(=O)Nc2cc(-c3cccs3)ccc2N)cn1`: the half-inhibitory concentration (IC50) on Androgen receptor is over 10 µM; against Histone deacetylase 1 [1], 11.1 µM.
Regarding `CC1(C)C(=O)N(c2ccc(C#N)c(C(F)(F)F)c2)C(=S)N1CCCCCCC(=O)NO`, the IC50 against Androgen receptor was determined as 0.39 µM; against Histone deacetylase 1 [1], 0.99 µM. Also, the result in the data set on LNCaP [2] was Active.
At Androgen receptor, `Nc1ccccc1NC(=O)c1ccc(CNC(=O)OCc2cccnc2)cc1` [ENTINOSTAT] returned an IC50 of over 10 µM. Moreover, the result in the data set on LNCaP [2] was Active.
With `CC1(C)C(=O)N(c2ccc(C#N)c(C(F)(F)F)c2)C(=S)N1CCCCCC(=O)NO`, the IC50 against Androgen receptor amounted to 1.45 µM; against Histone deacetylase 1 [1], 1.33 µM. Moreover, in the data set with LNCaP [2], the outcome was Active.
For `CC1(C)C(=O)N(c2ccc(C#N)c(C(F)(F)F)c2)C(=S)N1c1ccc(C(=O)Nc2cc(-c3ccccc3)ccc2N)nc1`, the half-maximal inhibitory concentration (IC50) is over 10 µM against Androgen receptor and over 1000 µM on Histone deacetylase 1 [1].
With `CC1(C)C(=O)N(c2ccc(C#N)c(C(F)(F)F)c2)C(=S)N1c1ccc(C(=O)Nc2ccccc2N)c(F)c1`, the results for the half-maximal inhibitory concentration (IC50) (in [3]; on Androgen receptor; against Histone deacetylase 1 [1]) were 2.5 µM, 1.7 µM and 2.86 µM, respectively.
Take `CC1(C)C(=O)N(c2ccc(C#N)c(C(F)(F)F)c2)C(=S)N1c1ccc(C(=O)Nc2ccccc2N)cn1`: the IC50 against Androgen receptor turned out to be 2.34 µM; on Histone deacetylase 1 [1], 6.51 µM.
With `CC1(C)C(=O)N(c2ccc(C#N)c(C(F)(F)F)c2)C(=S)N1c1ccc(C(=O)Nc2cc(-c3ccccc3)ccc2N)cc1`, the IC50 on Histone deacetylase 1 [4] is 5.96 µM; against Androgen receptor, over 10 µM.
`CC1(C)C(=O)N(c2ccc(C#N)c(C(F)(F)F)c2)C(=S)N1c1ccc(C(=O)Nc2cc(-c3ccccc3)ccc2N)cn1`: the values for the IC50 against Androgen receptor and against Histone deacetylase 1 [1] were over 10 µM and 2.39 µM, respectively.
`CC1(C)C(=O)N(c2ccc(C#N)c(C(F)(F)F)c2)C(=S)N1Cc1ccc(C(=O)Nc2ccccc2N)cc1`: the half-maximal inhibitory concentration (IC50) in data set [3] was found to be 1.6 µM; against Androgen receptor it was 0.28 µM; against Histone deacetylase 1 [1], 1.04 µM. The outcome with LNCaP [5], in the data set with BPH-1, in the data set on LNCaP [7] and with PC-3 was Active. Also, in data set [6], the Activity entry was “Non-Toxic”.
With `CC1(C)C(=O)N(c2ccc(C#N)c(C(F)(F)F)c2)C(=S)N1c1ccc(C(=O)Nc2ccccc2N)cc1`, the inhibition result in [8] is “Active”. Further, the outcome with LNCaP [5], in the data set with BPH-1, in the data set on LNCaP [2], with LNCaP [7], with LNCaP [9] and in the data set with PC-3 was Active. The values for the IC50 at Androgen receptor and on Histone deacetylase 1 [1] were 0.98 µM and 1.33 µM, respectively. For the same compound, in data set [6], the Activity entry is reported as “Non-Toxic”.
Turning to `CC1(C)C(=O)N(c2ccc(C#N)c(C(F)(F)F)c2)C(=S)N1c1ccc(C(=O)Nc2cc(-c3cccs3)ccc2N)nc1`, the results for the IC50 against Androgen receptor and at Histone deacetylase 1 [1] were over 10 µM and 3.67 µM, respectively.
As to `CC1(C)C(=O)N(c2ccc(C#N)c(C(F)(F)F)c2)C(=S)N1C12CC(CC(=O)Nc3ccccc3N)(C1)C2`, the IC50 on Androgen receptor is 0.19 µM; against Histone deacetylase 1 [1] it was over 1000 µM.
